Data: patent US9113629B2, “4-amino-6-(4-substituted-phenyl)-picolinates and 6-amino-2-(4-substituted-phenyl)-pyrimidine-4-carboxylates and their use as herbicides” (DOW AGROSCIENCES LLC, priority 2013, dated 2015)
Where two headings read alike, the source gives them in different places.

How the values were obtained:
[1] = tested on: Key Grass and Sedge Weeds as well as Grass Crops; assay: Post-emergent Test II herbicidal activity (Table 6); assay type: in vivo; settings: post-emergence, 336 h; for pest or weed control at 70 g/ha: application rate 70 g ai/ha; for pest or weed control at 140 g/ha: application rate 140 g ai/ha
Procedure, shortened: (§1)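 Greenhouse-grown plants at first or second true leaf stage were sprayed post-emergence with compound in acetone/DMSO-based aqueous spray containing crop oil concentrate and surfactant, at 187 L/ha, highest rate plus ½× to 1/16× dilutions. After 14 d, injury was scored visually versus untreated plants, 0 (none) to 100% (complete kill).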

[2] = tested on: Key Broadleaf Weed and Crop Species; assay: Post-emergent Test II herbicidal activity (Table 5); assay type: in vivo; settings: post-emergence, 336 h, post-emergent, 14 days after application; for pest or weed control at 70 g/ha: application rate 70 g ai/ha; for pest or weed control at 140 g/ha: application rate 140 g ai/ha
Procedure, shortened: as §1

[3] = CYPES: yellow nutsedge (Cyperus esculentus), read-out: Visual Growth Reduction (%) 14 Days After Application, CYPES
[4] = DIGSA: crabgrass (Digitaria sanguinalis), read-out: Visual Growth Reduction (%) 14 Days After Application, DIGSA
[5] = ECHCG: barnyardgrass (Echinochloa crus-galli), read-out: Visual Growth Reduction (%) 14 Days After Application, ECHCG
[6] = ORYSA: rice (Oryza sativa), read-out: Visual Growth Reduction (%) 14 Days After Application, ORYSA
[7] = SETFA: giant foxtail (Setaria faberi), read-out: Visual Growth Reduction (%) 14 Days After Application, SETFA
[8] = SORVU: grain sorghum (Sorghum vulgare), read-out: Visual Growth Reduction (%) 14 Days After Application, SORVU
[9] = TRZSS (wheat, Triticum aestivum), read-out: Visual Growth Reduction (%) 14 Days After Application, TRZSS
[10] = ZEAMX: maize, corn (Zea mays), read-out: Visual Growth Reduction (%) 14 Days After Application, ZEAMX
[11] = ABUTH: velvetleaf (Abutilon theophrasti), read-out: Visual Growth Reduction (%) 14 Days After Application, ABUTH
[12] = AMARE: redroot pigweed (Amaranthus retroflexus), read-out: Visual Growth Reduction (%) 14 Days After Application, AMARE
[13] = BRSNN: oilseed-rape, canola (Brassica napus), read-out: Visual Growth Reduction (%) 14 Days After Application, BRSNN
[14] = CHEAL: lambsquarters (Chenopodium album), read-out: Visual Growth Reduction (%) 14 Days After Application, CHEAL
[15] = EPHHL: wild poinsettia (Euphorbia heterophylla), read-out: Visual Growth Reduction (%) 14 Days After Application, EPHHL
[16] = HELAN: sunflower (Helianthus annuus), read-out: Visual Growth Reduction (%) 14 Days After Application, HELAN
[17] = VIOTR: wild pansy (Viola tricolor), read-out: Visual Growth Reduction (%) 14 Days After Application, VIOTR

SMILES	pest or weed control at 70 g/ha [1, 3] [%]	pest or weed control at 140 g/ha [1, 3] [%]	pest or weed control at 70 g/ha [1, 4] [%]	pest or weed control at 140 g/ha [1, 4] [%]	pest or weed control at 70 g/ha [1, 5] [%]	pest or weed control at 140 g/ha [1, 5] [%]	pest or weed control at 70 g/ha [1, 6] [%]	pest or weed control at 140 g/ha [1, 6] [%]	pest or weed control at 70 g/ha [1, 7] [%]	pest or weed control at 140 g/ha [1, 7] [%]	pest or weed control at 70 g/ha [1, 8] [%]	pest or weed control at 140 g/ha [1, 8] [%]	pest or weed control at 70 g/ha [1, 9] [%]	pest or weed control at 140 g/ha [1, 9] [%]	pest or weed control at 70 g/ha [1, 10] [%]	pest or weed control at 140 g/ha [1, 10] [%]	pest or weed control at 70 g/ha [2, 11] [%]	pest or weed control at 140 g/ha [2, 11] [%]	pest or weed control at 70 g/ha [2, 12] [%]	pest or weed control at 140 g/ha [2, 12] [%]	other results
Nc1c(F)c(-c2cc(F)c(C(F)F)cc2F)nc(C(=O)O)c1Cl [Compound 178]	85 to 94	85 to 94	0 to 29	45 to 59	60 to 74	85 to 94	0 to 29	0 to 29	85 to 94	85 to 94	45 to 59	60 to 74	30 to 44	45 to 59	0 to 29	30 to 44	75 to 84	75 to 84	95 to 100	95 to 100	pest or weed control at 70 g/ha [2, 13]: 95 to 100%; pest or weed control at 140 g/ha [2, 13]: 95 to 100%; pest or weed control at 70 g/ha [2, 14]: 95 to 100%; pest or weed control at 140 g/ha [2, 14]: 95 to 100%; pest or weed control at 70 g/ha [2, 15]: 85 to 94%; pest or weed control at 140 g/ha [2, 15]: 95 to 100%; pest or weed control at 70 g/ha [2, 16]: 95 to 100%; pest or weed control at 140 g/ha [2, 16]: 95 to 100%; pest or weed control at 70 g/ha [2, 17]: 30 to 44%; pest or weed control at 140 g/ha [2, 17]: 45 to 59%; melting point: 86.1 to 88.4 °C
COC(=O)c1nc(-c2cc(F)c(C)cc2F)c(F)c(N)c1Cl [Compound 184]	0 to 29	0 to 29	0 to 29	0 to 29	45 to 59	60 to 74	0 to 29	0 to 29	0 to 29	0 to 29	0 to 29	30 to 44	0 to 29	0 to 29	0 to 29	0 to 29	95 to 100	95 to 100	85 to 94	95 to 100	pest or weed control at 70 g/ha [2, 13]: 85 to 94%; pest or weed control at 140 g/ha [2, 13]: 95 to 100%; pest or weed control at 70 g/ha [2, 14]: 85 to 94%; pest or weed control at 140 g/ha [2, 14]: 95 to 100%; pest or weed control at 70 g/ha [2, 15]: 85 to 94%; pest or weed control at 140 g/ha [2, 15]: 95 to 100%; pest or weed control at 70 g/ha [2, 16]: 95 to 100%; pest or weed control at 140 g/ha [2, 16]: 95 to 100%; pest or weed control at 70 g/ha [2, 17]: 0 to 29%; pest or weed control at 140 g/ha [2, 17]: 0 to 29%; melting point: 116.5 to 118.8 °C
COC(=O)c1nc(-c2cc(F)c(C)cc2F)nc(N)c1OC [Compound 185]	0 to 29	0 to 29	0 to 29	0 to 29	0 to 29	0 to 29	0 to 29	0 to 29	0 to 29	0 to 29	0 to 29	0 to 29	0 to 29	0 to 29	0 to 29	0 to 29	30 to 44	45 to 59	0 to 29	0 to 29	pest or weed control at 70 g/ha [2, 13]: 30 to 44%; pest or weed control at 140 g/ha [2, 13]: 45 to 59%; pest or weed control at 70 g/ha [2, 14]: 60 to 74%; pest or weed control at 140 g/ha [2, 14]: 95 to 100%; pest or weed control at 70 g/ha [2, 15]: 75 to 84%; pest or weed control at 140 g/ha [2, 15]: 85 to 94%; pest or weed control at 70 g/ha [2, 16]: 75 to 84%; pest or weed control at 140 g/ha [2, 16]: 85 to 94%; pest or weed control at 70 g/ha [2, 17]: 0 to 29%; pest or weed control at 140 g/ha [2, 17]: 0 to 29%; melting point: 163.4 to 164.8 °C
Nc1cc(-c2cc(F)c(OC(F)F)cc2F)nc(C(=O)O)c1Cl [Compound 187]	0 to 29	30 to 44	0 to 29	0 to 29	60 to 74	60 to 74	0 to 29	0 to 29	60 to 74	75 to 84	0 to 29	0 to 29	0 to 29	45 to 59	0 to 29	0 to 29	45 to 59	60 to 74	95 to 100	95 to 100	pest or weed control at 70 g/ha [2, 13]: 75 to 84%; pest or weed control at 140 g/ha [2, 13]: 75 to 84%; pest or weed control at 70 g/ha [2, 14]: 75 to 84%; pest or weed control at 140 g/ha [2, 14]: 95 to 100%; pest or weed control at 70 g/ha [2, 15]: 95 to 100%; pest or weed control at 140 g/ha [2, 15]: 95 to 100%; pest or weed control at 70 g/ha [2, 16]: 45 to 59%; pest or weed control at 140 g/ha [2, 16]: 60 to 74%; pest or weed control at 70 g/ha [2, 17]: 0 to 29%; pest or weed control at 140 g/ha [2, 17]: 0 to 29%; melting point: 167.4 to 170.2 °C
